Measurements from publication PMC11869560, “Anticancer and cancer preventive activities of shogaol and curcumin from Zingiberaceae family plants in KG-1a leukemic stem cells” (BMC Complementary Medicine and Therapies, 2025).
≈ marks a conversion by molar mass, not a printed value. Read-outs that look alike come from different tables or passages of the source.

Tests used:
[1] = tested on: WT1 protein expression in KG-1a cells; assay: WT1 protein expression in KG-1a cells by Western blotting; type: cell-based, human
[2] = tested on: TAZ protein expression in KG-1a cells; assay: TAZ protein expression in KG-1a cells by Western blotting; type: cell-based, human; settings: IC50 concentrations, 0–12 h
Protocol: (§1) KG-1a cells (1.5 × 10^5 cells/mL) were treated with compounds or extracts at different incubation times. Then, the cells were harvested and the whole proteins were extracted using a RIPA buffer (25 mM Tris-base, pH 7.6, 0.1% SDS, 1% Triton X-100, 150 mM NaCl, and 1 mM EDTA). The protein concentration was measured using the Folin-Lowry or Bradford assay. The whole protein lysates (30 µg/lane) were then separated through 7.5% SDS-PAGE under reducing conditions and then transferred to PVDF membranes. The membranes were blocked in 5% skim milk in PBS, pH 7.4 at RT for 2 h, then, target proteins were probed with specific primary antibodies (anti-WT1, anti-CD34, anti-GAPDH, anti-cleaved caspase-3, anti-cleaved PARP, anti-phospho-Akt, anti-phospho-c-Jun, anti-phospho-SAPK/JNK, and anti-YAP/TAZ) indicated in Table S10 which diluted at a ratio of 1:1,000 in PBS, pH 7.4 at RT for 2 h. After incubation, the membranes were rinsed 6 times with 0.1% Tween-20 (Sigma-Aldrich, MA, USA) in PBS, pH 7.4 (PBS-T), each time for 5 min. […] Finally, the protein band signal was quantified by using a scan densitometer (Bio-Rad Laboratories, CA, USA).

RAW264.7 cells = assay: Cytotoxicity (IC20, cell viability) in RAW264.7 cells; type: cell-based; settings: Mus musculus, RAW264.7; incubation for 48 h; read-out: IC20 RAW264.7 (inhibitory concentration at 20% growth)
Protocol: MTT (3-(4,5-dimethylthiazol-2-yl)-2,5-diphenyltetrazolium bromide) assay was used to investigate the cytotoxicity of the test samples. […] After that, 5 mg/mL of MTT dye solution (Sigma-Aldrich, MA, USA) was added and incubated for 4 h. The produced formazan crystals were dissolved in 200 μL of DMSO (Sigma-Aldrich, MA, USA); then, the optical density (OD) was measured using an ELISA plate reader ([…], Taiwan) at 578 nm with a reference wavelength of 630 nm. The percentage of surviving cells was calculated from the absorbance values of the test and control wells using the following Equation. 1 [drawing 1] […] Afterward, supernatants were collected, and the levels of TNF-α and NO were measured using the Mouse TNF alpha Uncoated ELISA Kit (InvitrogenTM, ThermoFisher Scientific, MA, USA) and the Total Nitric Oxide Assay Kit (InvitrogenTM, ThermoFisher Scientific, MA, USA), respectively, according to the manufacturer's instructions.

[3] = tested on: p-c-Jun and p-SAPK/JNK in KG-1a cells; assay: p-c-Jun and p-SAPK/JNK in KG-1a cells by Western blotting; type: cell-based, human; settings: IC50 concentration, 6 h
Protocol: as §1, with “USA). […]” for “USA).”

KG-1a cells [4] = assay: MTT cytotoxicity assay in KG-1a cells; type: cell-based, human; settings: for IC50 / IC20: Homo sapiens, KG-1a; for IC20: read-out: IC20 KG-1a (inhibitory concentration at 20% growth); for Selectivity index (SI): IC50 for normal cells (PBMCs) / IC50 for cancer cells (KG-1a)
KG-1a cells [5] = assay: Cell death analysis by PI staining and flow cytometry in KG-1a cells; type: cell-based, human; settings: nocodazole 5–120 ng/mL, shogaol 6–9 µg/mL, curcumin various concentrations; time course
Protocol: Additionally, PI staining was used to investigate the cytotoxicity of the active compounds. KG-1a cells after exposure to the active compounds with various concentration were harvested at different incubation times and washed with ice-cold PBS, pH 7.4 for 2 times. Then, the cells were resuspended with PI in PBS, pH 7.4 at a ratio of 1:10,000. The percentage of dead cells was detected by flow cytometry (CytoFLEX S, Beckman Coulter, CA, USA) and analyzed by CytExpert program (Beckman Coulter, CA, USA).

[6] = IC20 concentrations, 48 h, normalized to GAPDH
[7] = 48 h, active compounds and drugs, MTT, 48 h, read-out: IC50 KG-1a
[8] = Table S7, KG-1a, first replicate, read-out: IC50 value R1
[9] = Table S7, KG-1a, third replicate, read-out: IC50 value R3
[10] = active compounds and drugs, MTT, 48 h

| SMILES | decrease of WT1 protein level compared to VC [1, 6] [%] | decrease of WT1 protein level compared to VC ([1]; IC50 concentration, 6 h) [%] | effect on TAZ protein abundance [2] | IC20 (RAW264.7 cells) [µg/mL] | p-c-Jun and p-SAPK/JNK levels compared to VC [3] | IC50 (KG-1a cells [4]; [7]) [µg/mL] | IC20 (KG-1a cells [4]; 48 h, incubation for 48 h) [µg/mL] | IC50 (KG-1a cells [4]; [8]) [µg/mL] | IC50 (KG-1a cells [4]; Table S7, KG-1a, second replicate, read-out: IC50 value R2) [µg/mL] | IC50 (KG-1a cells [4]; [9]) [µg/mL] | Selectivity index (SI) (KG-1a cells [4]; 48 h) | Selectivity index (SI) (KG-1a cells [4]; 48 h, listed as curcumin) | IC50 KG-1a (KG-1a cells [4]; [10]) [µg/mL] | IC20 KG-1a (inhibitory concentration at 20% growth) (KG-1a cells [4]; incubation for 48 h) [µg/mL] | induction of cell death (PI staining) (KG-1a cells [5]) | decrease of WT1 protein level compared to VC ([1]; IC50 concentration, 3 h) [%] | IC50 (KG-1a cells [4]; Table S7, KG-1a, mean of R1-R3, read-out: IC50 value Mean) [µg/mL] |
| --- | --- | --- | --- | --- | --- | --- | --- | --- | --- | --- | --- | --- | --- | --- | --- | --- | --- |
| COc1cc(/C=C/C(=O)CC(=O)/C=C/c2ccc(O)c(OC)c2)ccc1O [Curcumin, curcumin] | 44.05 ± 9.81 | 77.01 ± 8.80 | no significant change in its abundance was observed | 2.08 ± 0.15 (≈ 5.65 µM) | increased | 10 (≈ 27.1 µM) | 3.51 ± 0.59 (≈ 9.53 µM) | 10.4 (≈ 28.2 µM) | 10.6 (≈ 28.7 µM) | 10.6 (≈ 28.8 µM) | 1.31 | greater than 1 | 10.52 ± 0.12 (≈ 28.6 µM) | 3 (≈ 8.14 µM) | gradually induced cell death after 12 h of incubation |  |  |
| CCCCC/C=C/C(=O)CCc1ccc(O)c(OC)c1 [Shogaol, shogaol] | 30.71 ± 3.90 |  | no significant change in its abundance was observed | 2.71 ± 0.62 (≈ 9.81 µM) | increased | 2.99 ± 0.01 (≈ 10.8 µM) | 0.12 (≈ 0.434 µM) | 2.98 (≈ 10.8 µM) |  | 2.99 (≈ 10.8 µM) | 3.07 |  | 3 (≈ 10.9 µM) |  | notably induced cell death at 6 h | 22.58 ± 3.99 | 2.99 (≈ 10.8 µM) |
